Read-outs that look alike come from different tables or passages of the source.
Legend:
mouse cortical neuron = test: Whole-cell patch-clamp of mouse cortical neuron, perfusion of TzGly; assay type: cell-based; conditions: 1 μM
Source text: FIGS. 13A and 13B: FIG. 13A depicts the structure of TzGly. […] The measurement results were obtained by the whole-cell patch-clamp method, as known and used in the art.

[1] = Photorelease of TzGly by localized irradiation; assay type: physicochemical; conditions: irradiation at 470 nm, light spot diameter <1 micron
[2] = Quantum yield of the photoreaction; assay type: physicochemical
Source text: (§1) (See, e.g., E. S. Dodsworth et al., 1986, Chem. Phys. Lett., 124:152-158). The photoactivity of these compounds has been explained in terms of a reaction pathway that involves the transition between the MLCT state to a lower-energy d-d state, which promotes ligand release. There is a direct correspondence between the energy of the MLCT transition and the quantum yield of the photoreaction. For [Ru(bpy)2(4AP)CH3CN]^2+, the photoreaction yield is about φPR=0.4. Since [Ru(bpy)2(4AP)2]Cl2 presents a red-shifted band, a lower photoreaction yield is expected. An estimate based on early experiments leads to an estimate of φPR≅0.02 at 473 nm.

[3] = Cyclic voltammetry in water, RuIII/RuII redox potential; assay type: physicochemical; conditions: measured in water
Experimental: The supporting electrolyte was KNO3 (1 M). dE/dt=100 mV/s in glassy carbon electrode.
(§2) UV-vis spectra in water were obtained with an HP 8453 diode array spectrophotometer. RMN ^1H spectra were obtained using a Bruker 500 MHz equipment. CV measurements were performed with a PAR 273A potentiostat. Irradiation was effected by means of a pulsed Xe lamp, (pulse energy ˜0.5 J), with a low-pass filter at 480 nm. Irradiation using a 473 nm DPSS laser gave similar results.
as §1

[4] = UV-vis spectra of Ru(bpy)2(4AP)2 before and after photolysis; dark stability and recombination; assay type: physicochemical
Experimental: The photoproducts after exposure to light were Ru(bpy)2(4AP)(H2O) and free 4AP.
as §2

[5] = 1H NMR before and after irradiation with visible light (photorelease of 4AP); assay type: physicochemical; conditions: after irradiation with visible light, from NMR signal integration
Experimental: as §2
Although at pH 7 the spectrum of the irradiated complex is very similar to that of the original complex, a diminished shoulder at 470 nm becomes evident. To determine the nature of the photoreaction, NMR spectra were taken before and after irradiation with visible light. […] After irradiation, this signal decreased, and two new signals appeared at lower fields: one corresponding to the free ligand (m3), and the other corresponding to the aquo-4AP complex (m2), indicating photorelease of the 4AP. These two latter signals integrated for 0.30 and 0.27 of the initial signal, which corresponds to a photoreaction of 60%.

[6] = tested on: Retzius (Rz) cells in the ganglion; test: Intracellular voltage recording of leech ganglion neuron with Xe flash irradiation; assay type: cell-based, Hirudo medicinalis; conditions: for action potential activity on addition to saline, before irradiation: ~100 μM in saline, no light flash; for action potential activity after light flash: pulsed Xe lamp flash, UV removed by band-pass filter at 500 nm
Experimental: Hirudo medicinalis has a central nerve cord with several ganglia, each one containing about 400 neurons arranged in a known pattern. (W.-R. Schlue et al., 1980, J. Exp. Biol., 82:23-34). An entire ganglion was mounted on a dish. The transmembrane potential for a single cell (a neuron) in the ganglion was recorded by inserting inside the neuron a glass micropipet with a micrometer-sized end, filled with saturated aqueous KCl that acts as a luggin bridge for an Ag/AgCl electrode. Another Ag/AgCl electrode was used as a reference. The signal was taken with an AM-System 1600 amplifier, and the entire setup was covered with a Faraday cage. A 12 bit A/D acquisition card was used to digitize the data using an ad-hoc program written in QuickBasic.
Low Ca^2+-high Mg^2+ saline solution (NaCl, 102 mM; KCl, 4 mM; CaCl2: 1 mM; and MgCl2: 10 mM; Tris base, pH 5.4 adjusted to 7.4) was perfused through the dish. […] A pulsed Xe lamp located under the dish was used to irradiate the solution. UV light was removed using a band-pass filter at 500 nm.
After impaling the cell with an electrode, many experiments were performed on the same cell to ensure reproducibility. […] 300 seconds later, at 5500 s, a light flash was directed to the ganglion.

NC(C(=O)O)c1nnn[nH]1 (racemic) [TzGly, (RS)-(tetrazol-5-yl)glycine]
neuron spiking on addition via perfusion (mouse cortical neuron): spiking of a mouse cortical neuron

[Ru(bpy)2(TzGly)(py)]Cl2
photorelease on irradiation [1]: photoreleased TzGly

[Ru(bpy)2(4AP)CH3CN]^2+
photoreaction yield φPR [2]: ~0.4

[Ru(bpy)2(4AP)2]Cl2
redox potential of the couple RuIII/RuII [3]: 0.76 V versus Ag/AgCl | time without dark decomposition ([4]; in the dark, UV-vis): more than 20 hours | 4AP recombination ([4]; irradiated solution after 7 hours in the dark): less than 4% | photoreaction yield φPR ([2]; at 473 nm, estimate based on early experiments): ~0.02 | photoreaction (photorelease of 4AP) [5]: 60% | action potential activity on addition to saline, before irradiation [6]: the activity remained unchanged | action potential activity after light flash ([6]; ~100 μM): sudden activity was recorded and it remained high after 300 s | action potential activity after second light pulse ([6]; ~100 μM, second light pulse at 6750 s): an even higher activity

[Cl][Ru][Cl].c1ccc(-c2ccccn2)nc1.c1ccc(-c2ccccn2)nc1.c1ccc(-c2ccccn2)nc1 [Ru(bpy)3Cl2, reference compound]
action potential activity on addition to saline, before irradiation [6]: without significant changes in activity | action potential activity after light flash ([6]; ~100 μM): after a short time the activity decreased to the basal level
